One experiment has as its system ceramide. Briefly: Ceramide at muscle cell level in muscle biopsy homogenates of AIDS subjects. It is filed as in vivo, human. Conditions: muscle biopsy before treatment (baseline), individual patients and group mean. The procedure:
(§1) Four subjects with AIDS were treated with 600 mg of AZT daily by mouth. Of these, two were also treated with L-carnitine 3 g daily. The total duration of the treatment was 6 months. Muscle biopsies were performed before and after treatment. The ceramide present at muscle cell level was determined before and after treatment, after sonicating and homogenizing the biopsy material. The viral load was determined in the same muscle homogenates, as described in Example 1.

The test system of another experiment is lymphocyte ceramide. In words: Lymphocyte ceramide by DAG (diacylglycerol) kinase assay in AIDS patients. Type of experiment: in vivo, human.
In the next experiment the test system is HIV. In words: Viral load in muscle biopsy homogenates of AIDS subjects. It is filed as in vivo. Particulars: individual patients and group mean. The procedure:
The determinations were carried out prior to the combined treatment, while patients were taking only AZT (T0), after 4 weeks of therapy with the L-carnitine-AZT combination (T1) and one month after discontinuation of treatment with L-carnitine (T2), leaving the patients on AZT alone. TCD4 lymphocytes were measured by flow cytometry by means of a specific monoclonal antibody (number of lymphocytes per mm^3) and the apoptotic lymphocytes by flow cytometry after staining with propydium iodide, quantifying the cells with hypodiploid nuclei (number of lymphocytes per 50,000 cells). The viral load (number of viral particles per ml of serum) was determined by quantifying HVI-1 RNA by means of a polymerase chain reaction (Amplicor HIV detection system by Roche). The Wilcoxon test was used for the statistical processing.
as §1

Regarding `Cc1cn([C@H]2C[C@H](N=[N+]=[N-])[C@@H](CO)O2)c(=O)[nH]c1=O` [AZT, zidovudine], in the experiment with ceramide, the “Pre-treatment ceramide (pmoL/mg protein)” value amounted to 92 pmoL/mg protein. Further, the “levels of lymphocyte ceramide, T0” value in the experiment on lymphocyte ceramide (T0: prior to combination treatment, patients on AZT only, 13 patients) stood at 48±8 pmol/10^6 lymphocytes. For the same compound, in the experiment on lymphocyte ceramide (T2: one month after discontinuation of L-carnitine, patients on AZT alone), the “levels of lymphocyte ceramide, T2” value came to 38±9 pmol/10^6 lymphocytes. The “Post-treatment HIV (viral particles/mg protein)” value with HIV (muscle homogenate after 6 months, AZT 600 mg daily by mouth, with or without L-carnitine 3 g daily) is 4,950 viral particles/mg protein. Further, the “Pre-treatment HIV (viral particles/mg protein)” value with HIV (muscle homogenate before treatment (baseline)) is recorded as 4,850 viral particles/mg protein.

Source of the values: patent US20040039054A1, “Use of L-carnitine and derivatives for reducing ceramide levels and potentiating antiretroviral drugs” (SIGMA-TAU INDUSTRIE, priority 1995, published 2004).
